# Assay results taken from US5942532A, “2-substituted phenyl-benzimidazole antibacterial agents” (Ortho Pharmaceutical Corporation, priority 1997, dated 1999).
# Target: T1, Kinase A and Spo0F (Bacillus subtilis, UniProt P16497)
# T1 construct: made in house; host or cells: recombinant E. coli
# T1 sequence (P16497 1-606): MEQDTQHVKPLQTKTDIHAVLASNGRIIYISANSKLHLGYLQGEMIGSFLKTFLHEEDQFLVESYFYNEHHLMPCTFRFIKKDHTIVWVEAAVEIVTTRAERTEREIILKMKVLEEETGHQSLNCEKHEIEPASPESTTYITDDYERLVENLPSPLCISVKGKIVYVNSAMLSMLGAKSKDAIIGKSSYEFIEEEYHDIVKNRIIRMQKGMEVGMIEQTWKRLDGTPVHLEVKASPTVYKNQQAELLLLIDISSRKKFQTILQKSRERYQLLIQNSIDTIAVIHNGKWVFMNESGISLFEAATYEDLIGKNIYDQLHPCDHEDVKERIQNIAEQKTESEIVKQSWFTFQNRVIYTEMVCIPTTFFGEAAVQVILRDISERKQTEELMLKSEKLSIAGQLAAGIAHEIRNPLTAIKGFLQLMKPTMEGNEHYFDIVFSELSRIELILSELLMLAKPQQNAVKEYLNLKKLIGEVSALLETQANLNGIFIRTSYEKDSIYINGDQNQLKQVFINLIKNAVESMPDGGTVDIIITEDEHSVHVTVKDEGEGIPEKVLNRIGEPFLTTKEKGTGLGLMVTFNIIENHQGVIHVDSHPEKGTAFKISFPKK
# Experiment: Autophosphorylation of Kinase A and Transphosphorylation of Spo0F Assay (HPK in vitro assay)
# Type: biochemical
# Settings: Table 1, KinA/Spo0F phosphorylation, in µM
# Description: Autophosphorylation of Kinase A and Transphosphorylation of Spo0F Assay
# To study the effect of the compounds of the present invention on the signal transduction process in bacteria, the inhibiting effect of the compounds on the sporulation operon proteins Kinase A and Spo0F was examined. Specifically, the inhibition of autophosphorylation of Kinase A and the transphosphorylation of Spo0F was determined in the following assays. The Spo0F response regulator is the primary substrate for phosphorylation by the protein kinase, Kin A, involved in the sporulation process in bacteria. See D. Burbulys, K. A. Trach, J. A. Hoch, Cell, 64, 545-552 (1991). Spo0F and KinA were prepared from recombinant E. coli overexpressing the proteins (J. Cavanagh et al, Amino Acids, 6, 131-140 (1994) and references therein).
# The following stock reagents were either prepared and used promptly or stored at the indicated temperature:
# 8×Salts: 2 M KCl (5 mL), 1 M MgCl2 (800 mL), 1 M CaCl2 (100 mL), 10 mg/mL phenylmethylsulfonyl fluoride (200 mL), 1 M dithioreitol (50 mL), 0.25 M Na2 EDTA (32 mL) and H2 O 3.82 mL (-20° C.)
# 5×Loading Dye: 0.5M TRIS-HCl, pH 6.8 (7.5 mL), 10% SDS (2 mL) 0.1% bromophenol blue (0.5 mL), 100% glycerol (3 mL) and 12.5 M 2-mercaptoethanol (0.3 mL)
# 1-1.3 mg/mL KinA: 15 mM TRIS-HCl, pH 8.0, 6 mM KCl; 4 mM 2-mercaptoethanol;40% glycerol (-20° C.)
# 1 mg/mL Spo0F: 17.5 mM TRIS-HCl, pH 8.0; 0.7 mM KCl; 0.7 mM MgCl2; 0.7 mM CaCl2; 5 mM 2-mercaptoethanol; 30% glycerol (-20° C.)
# 5% Stacking Gel: 40% 29:1 acrylamide:bis acrylamide (1.25 mL), 0.5 M TRIS-HCl, pH 6.8 (2.5 mL), 10% SDS (0.1 mL), D-H2 O (6.15 mL) 10% ammonium persulfate (100 mL) and TEMED (25 mL)
# SDS Running Buffer: TRIS-BASE (3.02 g), glycine (14.4 g), SDS (1 g), D-H2 O (to 1 L)
# The reaction mixture was prepared from 8×Salts (87 μL), 1M TRIS, pH 8 (118 μL), 50% glycerol (63 μL), Spo0F (14.1 μL) and KinA (7.0 μL). Microcentrifuge tubes were charged with the reaction mixture (18.5 μL) and a 1.0 mM solution of the test compound in 5% DMSO (18.5 μL), and incubated for 15 min on ice. 100 mM ATP solution (3.0 μl, containing 625 μCi [^32 P]ATP) was added, and the mixture left for 10 minutes at room temperature. The reaction was quenched with 5× loading dye (10 μL per tube) and the samples were loaded on a prepared 5% Stacking Gel, or stored on dry ice until ready for use. The prepared wells were filled with SDS Running Buffer, samples were loaded into the wells, and 80 volts were applied to the gel until the dye front reached the bottom of the stacking gel. The voltage was then increased to 250 volts until electrophoresis was complete. Radioactive bands in the gel corresponding to phosphorylated KinA and Spo0F were imaged and quantitated with a phosphoimager.
# If either enzyme was inhibited (as evidenced by the absence of labelled protein in the developed gel), an IC50 was calculated by running the assay with a range of inhibitor concentrations from 1 to 500 μM. After electrophoresis of the reaction mixtures, percent inhibition was determined by measuring the concentration of radioactive phosphorus with a phosphoimager and calculating the values using a software program (BioRad Molecular Analyst).
row,SMILES,IC50
1,CC(C)(C)c1cc(-c2nc3ccc(C(=N)N)cc3[nH]2)ccc1O [Example 23],22
2,N=C(N)c1ccc2nc(-c3cc(OCc4ccccc4)cc(OCc4ccccc4)c3)[nH]c2c1 [Example 6],15.9
3,N=C(N)c1ccc2nc(-c3ccc(OCc4ccc([N+](=O)[O-])cc4)cc3)[nH]c2c1 [Example 11],19.4
4,CC(C)(C)c1cccc(-c2nc3ccc(C(=N)N)cc3[nH]2)c1O [Example 34],4
5,CCCCCCCCCCOc1ccc(-c2nc3ccc(C(=N)N)cc3[nH]2)cc1OCCCCCCCCCC [Example 12],8.3
6,CCN(CC)c1ccc(-c2nc3ccc(C(=N)N)cc3[nH]2)c(O)c1 [Example 38],51
7,COc1cc(Br)c(O)c(-c2nc3ccc(C(=N)N)cc3[nH]2)c1 [Example 37],171
8,N=C(N)c1ccc2nc(-c3cc(I)c(O)c(I)c3)[nH]c2c1 [Example 18],254
9,N=C(N)c1ccc2nc(-c3ccc(Oc4c([N+](=O)[O-])cc(C(F)(F)F)cc4[N+](=O)[O-])cc3)[nH]c2c1 [Example 45],28
10,N=C(N)c1ccc2nc(-c3cc(C(F)(F)F)cc(C(F)(F)F)c3)[nH]c2c1 [Example 7],30.8
11,N=C(N)c1ccc2nc(-c3ccc(C(F)(F)F)cc3)[nH]c2c1 [Example 3],169
12,CC(C)(C)c1cc(-c2nc3ccc(C(=N)N)cc3[nH]2)c(OCC(=O)O)c(C(C)(C)C)c1 [Example 42],199
13,N=C(N)c1ccc2nc(-c3ccc(NCc4ccccc4)cc3)[nH]c2c1 [Example 22],222
14,CC(C)(C)c1csc(-c2ccc(-c3nc4ccc(C(=N)N)cc4[nH]3)cc2)n1 [Example 43],40.2
15,N=C(N)c1ccc2nc(-c3cc(Cl)cc(Cl)c3O)[nH]c2c1 [Example 36],155
16,N=C(N)c1ccc2nc(-c3ccc(F)cc3)[nH]c2c1 [Example 17],480
17,N=C(N)c1ccc2nc(-c3ccc(N(Cc4ccccc4)Cc4ccccc4)cc3)[nH]c2c1 [Example 26],17
18,N=C(N)c1ccc2nc(-c3cc([N+](=O)[O-])cc([N+](=O)[O-])c3O)[nH]c2c1 [Example 33],74.7
19,N#CCCN(CCC#N)c1ccc(-c2nc3ccc(C(=N)N)cc3[nH]2)cc1 [Example 25],35.6
20,N=C(N)c1ccc2nc(-c3ccc(OCc4ccccc4)c(OCc4ccccc4)c3)[nH]c2c1 [Example 16],50.7
21,CC(C)(C)c1cc(-c2nc3ccc(C(=N)N)cc3[nH]2)cc(C(C)(C)C)c1O [Example 9],75.9
22,CC(C)(C)c1cc(-c2nc3ccc(C(=N)N)cc3[nH]2)c(O)c(C(C)(C)C)c1 [Example 30],8.5
23,N=C(N)c1ccc2nc(-c3cc(Br)cc(Br)c3O)[nH]c2c1 [Example 32],51.1
24,N=C(N)c1ccc2nc(-c3cc(-c4ccccc4)cc(-c4ccccc4)c3)[nH]c2c1 [Example 21],31
25,CCC(C)(C)c1ccc(-c2nc3ccc(C(=N)N)cc3[nH]2)cc1 [Example 8],37.6

# Same assay, conditions: Table 1, KinA/Spo0F phosphorylation, read-out: IC50
row,SMILES,IC50 [µM]
1,N=C(N)c1ccc2nc(-c3ccccc3O)[nH]c2c1 [Example 27],465
2,CC(C)(C)c1ccc(O)c(-c2nc3ccc(C(=N)N)cc3[nH]2)c1 [Example 35],64
3,CC(C)c1ccc(-c2nc3ccc(C(=N)N)cc3[nH]2)cc1 [Example 4],219

# Same assay, conditions: Table 2, KinA/Spo0F phosphorylation, in µM
row,SMILES,IC50
1,N=C(N)c1ccc2nc(-c3ccc(Oc4ccc(N)cc4)cc3)[nH]c2c1 [Example 51],140.6
2,N=C(N)c1ccc(Oc2ccc(-c3nc4ccc(C(=N)N)cc4[nH]3)cc2)cc1 [Example 47],131
3,N=C(N)c1cc([N+](=O)[O-])c2[nH]c(-c3ccc(Oc4ccccc4)cc3)nc2c1 [Example 61],58
4,CCOC(=O)c1ccc(Oc2ccc(-c3nc4ccc(C(=N)N)cc4[nH]3)cc2)cc1 [Example 52],56
5,N=C(N)c1ccc2nc(-c3ccc(Oc4ccc([N+](=O)[O-])cc4)cc3)[nH]c2c1 [Example 50],31.7
6,N=C(N)c1ccc2[nH]c(-c3ccc(Oc4ccc(N)c(N)c4)cc3)nc2c1 [Example 58],31.5
7,N=C(N)c1ccc2[nH]c(-c3ccc(Oc4ccc(Cl)c(Cl)c4)cc3)nc2c1 [Example 60],11.4
8,CC(C)(C)c1ccc(Oc2ccc(-c3nc4ccc(C(=N)N)cc4[nH]3)cc2)cc1 [Example 56],66.5
9,COc1cc(OC)cc(Oc2ccc(-c3nc4ccc(C(=N)N)cc4[nH]3)cc2)c1 [Example 55],59.2
10,N=C(N)c1ccc2nc(-c3ccc(Oc4ccc([N+](=O)[O-])c([N+](=O)[O-])c4)cc3)[nH]c2c1 [Example 57],31.6
11,COc1cc(Oc2ccc(-c3nc4ccc(C(=N)N)cc4[nH]3)cc2)cc(OC)c1OC [Example 53],28.7

# Same assay, conditions: Table 2, KinA/Spo0F phosphorylation, read-out: IC50
row,SMILES,IC50 [µM]
1,N=C(N)c1ccc2nc(-c3ccc(Oc4ccccc4)cc3)[nH]c2c1 [Example 48],42

# Same assay, conditions: Table 3, KinA/Spo0F phosphorylation, read-out: IC50
row,SMILES,IC50 [µM]
1,Cc1ccc(Oc2cccc(-c3nc4cc(C(=N)N)ccc4[nH]3)c2)cc1 [Example 65],33
2,N=C(N)c1ccc2[nH]c(-c3cccc(Oc4ccccc4)c3)nc2c1 [Example 63],53
3,CC(C)(C)c1ccc(Oc2cccc(-c3nc4cc(C(=N)N)ccc4[nH]3)c2)cc1 [Example 68],31.6

# Same assay, conditions: Table 4, KinA/Spo0F phosphorylation, read-out: IC50
row,SMILES,IC50 [µM]
1,N=C(N)c1ccc2nc(-c3cc4c5c(c3)CCCN5CCC4)[nH]c2c1 [Example 76],85
2,N=C(N)c1ccc2nc(-c3ccc4ccccc4c3O)[nH]c2c1 [Example 75],127
3,N=C(N)c1ccc2nc(-c3ccc4ccccc4c3)[nH]c2c1 [Example 74],120

# Same assay, conditions: Table 5, KinA/Spo0F phosphorylation, in µM
row,SMILES,IC50
1,N=C(N)c1ccc2nc(-c3ccc(Oc4ccc5[nH]cnc5c4)cc3)[nH]c2c1 [Example 80],94
2,N=C(N)c1ccc2nc(-c3ccc(N4CCN(c5ccccc5)CC4)cc3)[nH]c2c1 [Example 81],26

# Same assay, conditions: Table 6, KinA/Spo0F phosphorylation, in µM
row,SMILES,IC50
1,CC(C)(C)c1cc(-c2nc3ccc(C4=NCCCN4)cc3[nH]2)c(O)c(C(C)(C)C)c1 [Example 86],32
2,CC1(C)CN=C(c2ccc3nc(-c4cc(C(C)(C)C)cc(C(C)(C)C)c4O)[nH]c3c2)N1 [Example 88],12
3,CC(C)(C)c1cc(-c2nc3ccc(C4=NCCCCN4)cc3[nH]2)c(O)c(C(C)(C)C)c1 [Example 87],29

# Same assay, conditions: Table 6, KinA/Spo0F phosphorylation, read-out: IC50
row,SMILES,IC50 [µM]
1,CC(C)(C)c1cc(-c2nc3ccc(C(=O)O)cc3[nH]2)c(O)c(C(C)(C)C)c1 [Example 89],86
